# Legend:
# [1] = target: Histamine H4 receptor (Rattus norvegicus) (UniProt Q91ZY1); experiment: Antagonist activity at rat histamine H4 receptor assessed as decrease in intracellular calcium by FLIPR; format: functional, cell-based
# Histamine H4 receptor [2] = target: T1, Histamine H4 receptor (Homo sapiens, UniProt Q9H3N8); conditions: HEK293
# [3] = target: Histamine H4 receptor (Rattus norvegicus) (UniProt Q91ZY1); experiment: Antagonist activity at rat histamine H4 receptor assessed as decrease in intracellular calcium by FLIPR relative to histamine; format: functional, cell-based; design: concentration or dose not given beside the values
# Histamine H3 receptor [4] = target: Histamine H3 receptor (Homo sapiens, UniProt Q9Y5N1); experiment: Displacement of [3H]NAMH from human histamine H3 receptor expressed in C6 cells after 1 hr by liquid scintillation counting; format: cell-based
# Sequence of Histamine H3 receptor (Homo sapiens, UniProt Q9Y5N1) (Q9Y5N1 whole entry): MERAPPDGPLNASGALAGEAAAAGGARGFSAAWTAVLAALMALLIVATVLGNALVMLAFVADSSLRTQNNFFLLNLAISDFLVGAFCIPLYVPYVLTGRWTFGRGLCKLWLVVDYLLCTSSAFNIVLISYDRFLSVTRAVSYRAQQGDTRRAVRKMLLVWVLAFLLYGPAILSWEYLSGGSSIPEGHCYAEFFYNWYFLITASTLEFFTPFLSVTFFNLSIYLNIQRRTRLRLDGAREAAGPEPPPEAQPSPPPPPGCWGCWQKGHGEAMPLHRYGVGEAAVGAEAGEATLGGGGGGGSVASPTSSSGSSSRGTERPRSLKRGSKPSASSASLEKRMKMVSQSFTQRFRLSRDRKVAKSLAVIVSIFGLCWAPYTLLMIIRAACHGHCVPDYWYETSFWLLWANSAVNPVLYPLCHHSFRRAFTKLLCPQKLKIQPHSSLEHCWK
# Histamine H3 receptor [5] = target: Histamine H3 receptor (Rattus norvegicus, UniProt Q9QYN8); experiment: Displacement of [3H]NAMH from rat histamine H3 receptor expressed in C6 cells after 1 hr by liquid scintillation counting; format: cell-based
# Sequence of Histamine H3 receptor (Rattus norvegicus, UniProt Q9QYN8) (Q9QYN8 whole entry): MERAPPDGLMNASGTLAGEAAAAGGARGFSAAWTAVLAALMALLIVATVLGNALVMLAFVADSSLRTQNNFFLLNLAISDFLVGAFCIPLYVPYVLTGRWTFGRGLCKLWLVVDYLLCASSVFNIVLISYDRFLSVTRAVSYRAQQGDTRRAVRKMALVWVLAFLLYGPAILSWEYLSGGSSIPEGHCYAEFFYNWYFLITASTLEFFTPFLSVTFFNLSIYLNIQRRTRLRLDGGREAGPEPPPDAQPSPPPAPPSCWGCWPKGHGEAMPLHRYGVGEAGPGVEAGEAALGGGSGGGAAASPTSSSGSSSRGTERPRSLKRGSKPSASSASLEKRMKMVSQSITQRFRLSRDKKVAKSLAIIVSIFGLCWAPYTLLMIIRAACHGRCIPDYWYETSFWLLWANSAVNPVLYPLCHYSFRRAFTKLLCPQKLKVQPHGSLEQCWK
# [6] = Lipophilicity, log D at pH7.5; format: physicochemical; conditions: buffer, pH 7.5
# Histamine H4 receptor [7] = target: T1, Histamine H4 receptor; experiment: Displacement of [3H]-histamine from human histamine H4 receptor expressed in HEK293 cells after 1 hr by liquid scintillation counting; format: cell-based
# Histamine H4 receptor [8] = target: Histamine H4 receptor (Rattus norvegicus, UniProt Q91ZY1); experiment: Displacement of [3H]-histamine from rat histamine H4 receptor after 1 hr by liquid scintillation counting
# Sequence of Histamine H4 receptor (Rattus norvegicus, UniProt Q91ZY1) (Q91ZY1 whole entry): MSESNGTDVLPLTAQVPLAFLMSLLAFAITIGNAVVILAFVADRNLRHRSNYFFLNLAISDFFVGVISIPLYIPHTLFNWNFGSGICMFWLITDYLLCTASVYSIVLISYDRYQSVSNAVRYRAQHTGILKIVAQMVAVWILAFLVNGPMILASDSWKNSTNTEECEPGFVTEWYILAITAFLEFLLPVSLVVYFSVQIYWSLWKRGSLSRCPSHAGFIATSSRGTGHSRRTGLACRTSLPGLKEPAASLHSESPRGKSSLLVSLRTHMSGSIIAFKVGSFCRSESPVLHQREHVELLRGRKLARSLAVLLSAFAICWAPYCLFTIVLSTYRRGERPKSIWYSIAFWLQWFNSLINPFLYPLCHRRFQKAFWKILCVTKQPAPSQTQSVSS
# [9] = target: T2, Histamine H4 receptor (Mus musculus) (UniProt Q91ZY2); experiment: Antagonist activity at mouse histamine H4 receptor assessed as decrease in intracellular calcium by FLIPR; format: functional, cell-based
# T2 sequence (whole entry): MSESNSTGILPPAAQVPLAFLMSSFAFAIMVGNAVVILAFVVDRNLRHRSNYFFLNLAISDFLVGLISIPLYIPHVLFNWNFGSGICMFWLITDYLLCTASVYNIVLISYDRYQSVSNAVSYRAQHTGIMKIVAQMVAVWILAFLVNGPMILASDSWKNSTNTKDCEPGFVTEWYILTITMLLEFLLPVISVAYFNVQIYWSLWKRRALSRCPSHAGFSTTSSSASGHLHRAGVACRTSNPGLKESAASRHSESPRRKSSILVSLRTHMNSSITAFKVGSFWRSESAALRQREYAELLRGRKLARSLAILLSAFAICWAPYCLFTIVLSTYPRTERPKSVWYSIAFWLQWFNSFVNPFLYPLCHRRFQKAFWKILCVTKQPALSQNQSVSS
# Mus musculus = experiment: Inhibition of clobenpropit-induced scratching in hind paw of ip dosed mouse administered 30 mins before; format: functional
# Histamine H4 receptor [10] = target: T1, Histamine H4 receptor; experiment: Agonist activity at human histamine H4 receptor expressed in HEK293 cells coexpressing Galphaqi5 assessed as increase in intracellular calcium by FLIPR relative to histamine
# Sequence of Histamine H4 receptor (Rattus norvegicus) (Q91ZY1 whole entry): as the sequence (Q91ZY1 whole entry) above
Compound,pKb [1],pKb (Histamine H4 receptor [2]),Activity [3],also measured
Nc1nc(N2CCC(N)(C(=O)O)CC2)c2c(n1)C1(CCCC1)CCC2,< 4.68,< 4.67,,
Nc1nc(N2C[C@H]3CNC[C@H]3C2)c2c(n1)C1(CCCC1)CCC2 (stereo in doubt; 34),5.65,5.99,48%,
Nc1nc(N2C[C@H]3CNC[C@H]3C2)c2c(n1)C1(CCCC1)CCC2 (stereo in doubt; 33),5.13,5.96,53%,
CN[C@@H]1CCN(c2nc(N)nc3c2CCCC(c2ccccc2)C3)C1 (stereo not given in full),,,,Ki (Histamine H3 receptor [4]): 224 nM; Ki (Histamine H3 receptor [5]): 105 nM
CNC1CN(c2nc(N)nc3c2CCCCC3c2ccccc2)C1 (stereo not given),,,,logD [6]: 2.05
Nc1nc(N2CCCNCC2)c2c(n1)C1(CCCC1)CCC2,< 5.32,8.01,77%,
CN(C)CCOc1nc(N)nc2c1CCCC21CCCC1,< 6,8.11,88%,
Nc1nc2c(c(N3CC4CCCNC4C3)n1)CCCCC2c1ccccc1 (stereo not given),,7.59,,Ki (Histamine H4 receptor [7]): 7.08 nM; Ki (Histamine H4 receptor [8]): 2.69 nM
CN1CCC(Nc2nc(N)nc3c2CCCC32CCCC2)CC1,6.9,7.66,84%,
Nc1nc(N2C[C@H]3CCCN[C@H]3C2)c2c(n1)C1(CCCCC1)CCC2,5.81,7,50%,
Nc1nc(N2C[C@H]3CCCN[C@H]3C2)c2c(n1)C1(CCCC1)CCC2,< 6.6,8.07,35%,
CN1CCC(Oc2nc(N)nc3c2CCCC32CCCC2)CC1,< 5.48,7.7,86%,
Nc1nc2c(c(N3C[C@H]4CCCN[C@H]4C3)n1)CCCCC2c1ccccc1 (stereo not given in full),8.24,7.88,,pKb [9]: 7.9; ED50 (Mus musculus): 3 µmol/kg
COC(=O)C1(N)CCN(c2nc(N)nc3c2CCCC32CCCC2)CC1,4.77,4.9,52%,
Nc1nc(N2CCNCC2)c2c(n1)C1(CCCCC1)CCC2,< 4.86,7.32,105%,

# Now from value to molecule, other results behind:
pKb [1],pKb (Histamine H4 receptor [2]),Activity [3],Compound,also measured
< 4.96,7.33,84%,Nc1nc(N2CC[C@@H](N)C2)c2c(n1)C1(CCCCC1)CCC2,
7.6,8.34,46%,CNC1CN(c2nc(N)nc3c2CCCC32CCCC2)C1,logD [6]: 1.6; Ki (Histamine H3 receptor [4]): 63.1 nM; Ki (Histamine H3 receptor [5]): 6.76 nM; Ki (Histamine H4 receptor [7]): 1.51 nM; Ki (Histamine H4 receptor [8]): 1.45 nM
4.63,< 4.16,48%,Nc1nc(N2CC(N)C2)c2c(n1)C1(CCCC1)CCC2,
5.42,8.56,87%,Nc1nc(N2CCNCC2)c2c(n1)C1(CCCC1)CCC2,logD [6]: 2.2
6.09,6.3,,Nc1nc(N2CC[C@@H](N)C2)c2c(n1)C1(CCC2)Cc2ccccc2C1,
7.48,8.54,58%,CN[C@@H]1CCN(c2nc(N)nc3c2CCCC32CCCC2)C1,Ki (Histamine H3 receptor [4]): 105 nM; Ki (Histamine H3 receptor [5]): 72.4 nM; Ki (Histamine H4 receptor [7]): 2 nM; Ki (Histamine H4 receptor [8]): 2.63 nM
4.86,4.57,135%,Nc1nc(N2CCNCC2)c2c(n1)C1(CCC2)Cc2ccccc2C1,Activity (Histamine H4 receptor [10]): 49%
7.26,7.24,,Nc1nc2c(c(N3CCNCC3)n1)CCCCC2c1ccccc1 (stereo not given),logD [6]: 1.73; pKb [9]: 7.34; ED50 (Mus musculus): 10 µmol/kg; Ki (Histamine H3 receptor [4]): 2240 nM; Ki (Histamine H3 receptor [5]): 661 nM
6.87,7.28,63%,Nc1nc(N2CC[C@H](N)C2)c2c(n1)C1(CCCC1)CCC2,
6.76,8.57,71%,Nc1nc(N2CC[C@@H](N)C2)c2c(n1)C1(CCCC1)CCC2,pKb [9]: 7.82; ED50 (Mus musculus): 1 µmol/kg; Ki (Histamine H3 receptor [4]): 295 nM; Ki (Histamine H3 receptor [5]): 79.4 nM
